According to patent publication US20240002391A1, “4-ALKOXYPYRROLO[2,1-F][1,2,4]TRIAZINES AND PREPARATION AND USES THEREOF” (BioSplice Therapeutics, Inc., priority 2022, published 2024):

Biological target: recombinant DYRK1A kinase (Homo sapiens (Human), UniProt Q13627)
Test: DYRK1A kinase assay (Ser/Thr 18 peptide Z-lyte FRET)
Assay type: biochemical
Conditions: DYRK1A kinase activity, Z-lyte Ser/Thr 18 peptide, 15 μM ATP; method text calls the value IC50; read-out: EC50 (the source's name)
Method in brief: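 Steps: combine 0.25 μg/mL kinase, 15 μM ATP and 4 μM peptide with test compound; incubate 1 h at room temperature; add diluted development reagent for another hour; read coumarin and fluorescein emission at Ex 400. The emission ratio yields percent phosphorylation, from which IC50 is derived.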

Row | Structure (SMILES) | IC50
1 | COc1nc(N[C@H]2CCN(S(C)(=O)=O)C[C@H]2F)nn2ccc(-c3ccc4nnn(CC(F)F)c4c3)c12 [Compound 1145, 5-(1-(2,2-Difluoroethyl)-1H-benzo[d][1,2,3]triazol-6-yl)-N-((3R,4S)-3-fluoro-1-(methylsulfonyl)piperidin-4-yl)-4-methoxypyrrolo[2,1-f][1,2,4]triazin-2-amine] | 1.4 nM
2 | CC[C@]1(O)CC[C@H](Nc2nc(OC)c3c(-c4cc(F)c5nccn5c4)ccn3n2)CC1 [Compound 433, (1r,4r)-1-Ethyl-4-((5-(8-fluoroimidazo[1,2-a]pyridin-6-yl)-4-methoxypyrrolo[2,1-f][1,2,4]triazin-2-yl)amino)cyclohexan-1-ol] | 2.6 nM
3 | COc1nc(NC2CCC3(CC2)CC3)nn2ccc(-c3cnc4nccn4c3)c12 [Compound 977, 5-(Imidazo[1,2-a]pyrimidin-6-yl)-4-methoxy-N-(spiro[2.5]octan-6-yl)pyrrolo[2,1-f][1,2,4]triazin-2-amine] | 1.8 nM
4 | CCN1C[C@H](F)[C@H](Nc2nc(OC)c3c(-c4ccc5nnn(CC(F)F)c5c4)ccn3n2)C1 [Compound 732, 5-(1-(2,2-Difluoroethyl)-1H-benzo[d][1,2,3]triazol-6-yl)-N-((3R,4S)-1-ethyl-4-fluoropyrrolidin-3-yl)-4-methoxypyrrolo[2,1-f][1,2,4]triazin-2-amine] | 1 nM
5 | CNC(=O)[C@]1(C)C[C@@H](Nc2nc(OC)c3c(-c4ccc5ncccc5c4)ccn3n2)C1 [Compound 1038, trans-3-((4-Methoxy-5-(quinolin-6-yl)pyrrolo[2,1-f][1,2,4]triazin-2-yl)amino)-N,1-dimethylcyclobutane-1-carboxamide] | 0.5 nM
6 | COc1nc(N[C@H]2CC[C@@](C)(O)CC2)nn2ccc(-c3ccc4nnn(C)c4c3)c12 [Compound 224, cis-4-((4-Methoxy-5-(1-methyl-1H-benzo[d][1,2,3]triazol-6-yl)pyrrolo[2,1-f][1,2,4]triazin-2-yl)amino)-1-methylcyclohexan-1-ol] | 11.3 nM
7 | COc1nc(N[C@H]2CC[C@@H](OC(F)F)CC2)nn2ccc(-c3cnc4nccn4c3)c12 [Compound 250, N-(cis-4-(Difluoromethoxy)cyclohexyl)-5-(imidazo[1,2-a]pyrimidin-6-yl)-4-methoxypyrrolo[2,1-f][1,2,4]triazin-2-amine] | 0.6 nM
8 | COCCO[C@H]1CC[C@@H](Nc2nc(OC)c3c(-c4ccc5nccn5c4)ccn3n2)CC1 [Compound 51, 5-(Imidazo[1,2-a]pyridin-6-yl)-4-methoxy-N-(cis-4-(2-methoxyethoxy)cyclohexyl)pyrrolo[2,1-f][1,2,4]triazin-2-amine] | 6.7 nM
9 | COc1nc(N[C@H]2CCN(C(C)=O)C[C@H]2F)nn2cc(F)c(-c3ccc4ncccc4c3)c12 [Compound 1061, 1-((3R,4S)-3-Fluoro-4-((6-fluoro-4-methoxy-5-(quinolin-6-yl)pyrrolo[2,1-f][1,2,4]triazin-2-yl)amino)piperidin-1-yl)ethan-1-one] | 0.9 nM
10 | COc1nc(N[C@H]2CC[C@H](C(C)(C)O)CC2)nn2ccc(-c3cnc4nccn4c3)c12 [Compound 242, 2-(trans-4-((5-(Imidazo[1,2-a]pyrimidin-6-yl)-4-methoxypyrrolo[2,1-f][1,2,4]triazin-2-yl)amino)cyclohexyl)propan-2-ol] | 4.4 nM
11 | COc1nc(N[C@@H]2CCN(C3COC3)CC2(F)F)nn2ccc(-c3ccc4nnn(C)c4c3)c12 [Compound 628, (R)—N-(3,3-Difluoro-1-(oxetan-3-yl)piperidin-4-yl)-4-methoxy-5-(1-methyl-1H-benzo[d][1,2,3]triazol-6-yl)pyrrolo[2,1-f][1,2,4]triazin-2-amine] | 6.3 nM
12 | CC[C@]1(O)CC[C@H](Nc2nc(OC)c3c(-c4ccc5nnn(CC(F)F)c5c4)ccn3n2)CC1 [Compound 727, (1r,4r)-4-((5-(1-(2,2-Difluoroethyl)-1H-benzo[d][1,2,3]triazol-6-yl)-4-methoxypyrrolo[2,1-f][1,2,4]triazin-2-yl)amino)-1-ethylcyclohexan-1-ol] | 2.8 nM
13 | C[C@]1(O)CC[C@H](Nc2nc(OCC(F)F)c3c(-c4ccc5ncnn5c4)ccn3n2)CC1 [Compound 616, (1r,4r)-4-((5-([1,2,4]Triazolo[1,5-a]pyridin-6-yl)-4-(2,2-difluoroethoxy)pyrrolo [2,1-f][1,2,4]triazin-2-yl)amino)-1-methylcyclohexan-1-ol] | 2.9 nM
14 | CNC(=O)C12CC(Nc3nc(OC)c4c(-c5ccc6nnn(C)c6c5)ccn4n3)(C1)C2 [Compound 226, 3-((4-Methoxy-5-(1-methyl-1H-benzo[d][1,2,3]triazol-6-yl)pyrrolo[2,1-f][1,2,4]triazin-2-yl)amino)-N-methylbicyclo[1.1.1]pentane-1-carboxamide] | 3.2 nM
15 | COc1nc(N[C@H]2CCN(CCF)C[C@H]2F)nn2ccc(-c3ccc4nccnc4c3)c12 [Compound 372, N-((3R,4S)-3-Fluoro-1-(2-fluoroethyl)piperidin-4-yl)-4-methoxy-5-(quinoxalin-6-yl)pyrrolo[2,1-f][1,2,4]triazin-2-amine] | 4.1 nM
16 | COc1nc(N[C@@H]2CN(C)C[C@@H]2F)nn2ccc(-c3cnc4nccn4c3)c12 [Compound 262, N-((3R,4S)-4-Fluoro-1-methylpyrrolidin-3-yl)-5-(imidazo[1,2-a]pyrimidin-6-yl)-4-methoxypyrrolo[2,1-f][1,2,4]triazin-2-amine] | 3.2 nM
17 | COc1nc(N[C@H]2CCN(C3COC3)C[C@H]2F)nn2ccc(-c3ccc4nnn(CCF)c4c3)c12 [Compound 666, N-((3R,4S)-3-Fluoro-1-(oxetan-3-yl)piperidin-4-yl)-5-(1-(2-fluoroethyl)-1H-benzo[d][1,2,3]triazol-6-yl)-4-methoxypyrrolo[2,1-f][1,2,4]triazin-2-amine] | 1.1 nM
18 | COc1nc(N[C@H]2C[C@]3(CCN3C(C)=O)C2)nn2ccc(-c3ccc4nccnc4c3)c12 [Compound 383, 1-((4s,6r)-6-((4-Methoxy-5-(quinoxalin-6-yl)pyrrolo[2,1-f][1,2,4]triazin-2-yl)amino)-1-azaspiro[3.3]heptan-1-yl)ethan-1-one] | 1.4 nM
19 | COc1nc(N[C@@H]2CCN(C)C[C@@H]2F)nn2ccc(-c3ccc4nc(C)n(CC(F)F)c4c3)c12 [Compound 124, 5-(1-(2,2-Difluoroethyl)-2-methyl-1H-benzo[d]imidazol-6-yl)-N-((3S,4R)-3-fluoro-1-methylpiperidin-4-yl)-4-methoxypyrrolo[2,1-f][1,2,4]triazin-2-amine] | 2.8 nM
20 | COc1nc(N[C@H]2CCN(C3COC3)C[C@H]2F)nn2ccc(-c3ccc4nnn(CC(F)F)c4c3)c12 [Compound 762, 5-(1-(2,2-Difluoroethyl)-1H-benzo[d][1,2,3]triazol-6-yl)-N-((3R,4S)-3-fluoro-1-(oxetan-3-yl)piperidin-4-yl)-4-methoxypyrrolo[2,1-f][1,2,4]triazin-2-amine] | 1.3 nM

More lines, in order of falling IC50, values ahead:

Row | IC50 | Structure (SMILES)
21 | 58.9 nM | Oc1nc(N[C@@H]2CN(C3COC3)C[C@@H]2F)nn2ccc(-c3cnc4nccn4c3)c12 [Compound 265, 2-(((3R,4S)-4-fluoro-1-(oxetan-3-yl)pyrrolidin-3-yl)amino)-5-(imidazo[1,2-a]pyrimidin-6-yl)pyrrolo[2,1-f][1,2,4]triazin-4-ol]
22 | 8.2 nM | COc1nc(N[C@H]2C[C@@](C)(N)C2)nn2ccc(-c3ccn4nccc4c3)c12 [Compound 95, cis-N1-(4-Methoxy-5-(pyrazolo[1,5-a]pyridin-5-yl)pyrrolo[2,1-f][1,2,4]triazin-2-yl)-3-methylcyclobutane-1,3-diamine]
23 | 6.7 nM | COc1nc(NC2CC3(CCOCC3)C2)nn2ccc(-c3ccc4nccnc4c3)c12 [Compound 1100, 4-Methoxy-5-(quinoxalin-6-yl)-N-(7-oxaspiro[3.5]nonan-2-yl)pyrrolo[2,1-f][1,2,4]triazin-2-amine]
24 | 4.8 nM | c1cnc2cc(-c3ccn4nc(NC5CC6(CCOCC6)C5)nc(OC5COC5)c34)ccc2n1 [Compound 1137, 4-(Oxetan-3-yloxy)-5-(quinoxalin-6-yl)-N-(7-oxaspiro[3.5]nonan-2-yl)pyrrolo[2,1-f][1,2,4]triazin-2-amine]
25 | 3.7 nM | CC[C@]1(O)CC[C@H](Nc2nc(OC)c3c(-c4ccc5ncnn5c4)ccn3n2)CC1 [Compound 567, (1r,4r)-4-((5-([1,2,4]Triazolo[1,5-a]pyridin-6-yl)-4-methoxypyrrolo[2,1-f][1,2,4]triazin-2-yl)amino)-1-ethylcyclohexan-1-ol]
26 | 2.9 nM | COc1nc(N[C@@H]2CCN(C3COC3)C[C@@H]2F)nn2ccc(-c3ccc4nccnc4c3)c12 [Compound 373, N-((3S,4R)-3-Fluoro-1-(oxetan-3-yl)piperidin-4-yl)-4-methoxy-5-(quinoxalin-6-yl)pyrrolo[2,1-f][1,2,4]triazin-2-amine]
27 | 2.7 nM | COc1nc(N[C@H](C)C2CCOCC2)nn2ccc(-c3cnc4nccn4c3)c12 [Compound 1147, (R)-5-(Imidazo[1,2-a]pyrimidin-6-yl)-4-methoxy-N-(1-(tetrahydro-2H-pyran-4-yl)ethyl)pyrrolo[2,1-f][1,2,4]triazin-2-amine]
28 | 1.9 nM | COc1nc(N[C@H]2CCN(C(C)=O)C[C@H]2F)nn2cc(F)c(-c3ccc4nnn(CC(F)F)c4c3)c12 [Compound 856, 1-((3R,4S)-4-((5-(1-(2,2-Difluoroethyl)-1H-benzo[d][1,2,3]triazol-6-yl)-6-fluoro-4-methoxypyrrolo[2,1-f][1,2,4]triazin-2-yl)amino)-3-fluoropiperidin-1-yl)ethan-1-one]
29 | 1.3 nM | COc1nc(N[C@@H]2CCN(C(C)=O)CC2(F)F)nn2ccc(-c3ccc4ncccc4c3)c12 [Compound 1048, (R)-1-(3,3-Difluoro-4-((4-methoxy-5-(quinolin-6-yl)pyrrolo[2,1-f][1,2,4]triazin-2-yl)amino)piperidin-1-yl)ethan-1-one]
30 | 0.7 nM | COc1nc(N[C@H]2CC[C@@H](NC(C)=O)CC2)nn2ccc(-c3ccc4nccn4c3)c12 [Compound 53, N-(cis-4-((5-(Imidazo[1,2-a]pyridin-6-yl)-4-methoxypyrrolo[2,1-f][1,2,4]triazin-2-yl)amino)cyclohexyl)acetamide]
